In patent US5506239A, “Carbostyril derivative and platelets aggregation inhibitory agent” (Otsuka Pharmaceutical Co., Ltd., priority 1991, dated 1996) one finds IC50 data, which are given here for 47 molecules.

Experiment [1] concerns platelets. Put plainly: Platelets aggregation inhibitory activity (method of Born et al.), collagen-induced, human PRP (Pharmacological Test I). The experiment is classed as cell-based, man. The conditions noted are these: Homo sapiens, Platelet, 20 μg/ml collagen, 37° C., read-out: IC50 Collagen (50% platelets aggregation inhibition). As to the method:
(§1) The platelets aggregation inhibitory activity of each test compound was measured by the method of Born et al. [J. Physiol., London, 162, 67 (1962)], using Platelets Aggregation Tracer manufactured by Nikoh Bioscience Co., Ltd.
(§2) 9 volumes of a blood collected from person was mixed with 1 volume of a 3.8% aqueous sodium citrate solution. Part of the mixture was subjected to centrifugation at 1,100 rpm for 10 minutes to obtain a platelet rich plasma (PRP). The remainder of the mixture was also subjected to centrifugation at 3,000 rpm for 10 minutes to obtain a platelet poor plasma (PPP).
(§3) The number of platelets in the PRP was measured using Coulter Counter manufactured by Coulter Electronics Inc. Then, the PRP was diluted with the PPP so that the number of platelets in the dilution became 300,000, whereby a PRP solution was prepared.
(§4) 200 μl of this PRP solution and 2 ml of a solution containing a test compound at a given concentration were placed in an aggregation measurement cell and heated at 37° C. for 1 minute. Thereto was added 20 μl of adenosine diphosphate (ADP manufactured by Sigma Co.) or a collagen suspension (Collagen Reagent manufactured by Horm, Hormon-Chemie, Gmbh) to induce aggregation of platelets. The resulting mixture in the cell was measured for change of transmittance, after which a platelets aggregation curve was prepared. Incidentaly, the concentration of ADP or collagen was selected so that the final Concentration became 7.5 μM or 20 μg/ml.
(§5) Using the platelets aggregation curve, there was calculated a maximum aggregation rate (MAR) of platelets using the followoing formula: […]
(§6) wherein a represents a transmittance of the PRP obtained in the same manner; c represents a transmittance of the PPP obtained in the same manner; and b represents a transmittance at the maximum change, of the PRP solution containng the test compound and the aggregation inducer.
(§7) A MAR was also calculated as above, for the control containing no test compound.
(§8) Using the above two MARs, there were calculated platelets aggregation inhibitions (%) of each test compound at various concentrations using the following formula.
(§9) Inhibition=[1-(MAR of PRP solution containing test compound)/(MAR of PRP
(§10) solution containing no test compound)]×100
(§11) Using the above obtained platelets aggregation inhibitions (%) of each test compound at various concentrations, there was calculated a concentration (IC50) of each test compound for 50% platelets aggregation inhibition.

In experiment [2] the test system is platelets. In words: Platelets aggregation inhibitory activity (method of Born et al.), ADP-induced, human PRP (Pharmacological Test I). The class given is cell-based, man. The conditions noted are these: 7.5 μM ADP, 37° C., read-out: IC50 ADP (50% platelets aggregation inhibition). As to the method: as §1, §2, §3, §4, §5, §6, §7, §8, §9, §10, §11

The structures appear in SMILES notation. pIC50: −log10 of the molar value.

For `O=C(CN1CCC(O)CC1)N(CCCCOc1ccc2[nH]c(=O)ccc2c1)CC1CCCCCCC1` [Example 21], the pIC50 in the experiment on platelets [1] was 5.51; with platelets [2] (Homo sapiens, Platelet) it was 5.38. As for `O=c1ccc2cc(OCCCCN(CCN3CCC(O)CC3)CC3CCCCO3)ccc2[nH]1` (stereo not shown) [Example 24], the pIC50 in the experiment with platelets [1] was 4.85; with platelets [2] (Homo sapiens, Platelet) it was 4.85. `O=c1ccc2cc(OCCCCN(CCN3CCC(O)CC3)C3CCCCC3)ccc2[nH]1` [Example 26]: the pIC50 with platelets [1] is 4.85; in the experiment with platelets [2] (Homo sapiens, Platelet) it was 4.82. For `O=c1ccc2cc(OCCCCCN(CCN3CCC(O)CC3)Cc3ccccc3)ccc2[nH]1` [Example 29] the same measures were 5.20 and 4.92. On to `Cc1ccc(CN(CCCCCOc2ccc3[nH]c(=O)ccc3c2)CCN2CCC(O)CC2)cc1` [Example 32], for which the negative logarithm of the IC50 (pIC50) in the experiment with platelets [1] was 5.21; in the experiment with platelets [2] (Homo sapiens, Platelet), 5.32. For `N#Cc1ccc(CN(CCCCCOc2ccc3[nH]c(=O)ccc3c2)CCN2CCC(O)CC2)cc1` [Example 33] the same measures were 5.04 and 5.25. Consider `COc1ccc(CN(CCCCCOc2ccc3[nH]c(=O)ccc3c2)CCN2CCC(O)CC2)cc1OC` [Example 35], for which the pIC50 with platelets [1] is 4.96; in the experiment with platelets [2] (Homo sapiens, Platelet) it was 4.96. For `O=c1ccc2cc(OCCCCCN(CCN3CCC(O)CC3)Cc3ccc(Cl)c(Cl)c3)ccc2[nH]1` [Example 36], the pIC50 was 4.70 in the experiment on platelets [1] and 4.96 with platelets [2] (Homo sapiens, Platelet). For `O=c1ccc2cc(OCCCCCN(CCN3CCC(O)CC3)Cc3cccs3)ccc2[nH]1` [Example 40], the pIC50 in the experiment with platelets [1] is 5.00; in the experiment on platelets [2] (Homo sapiens, Platelet) it was 4.89. As to `O=C(C1CCCCCCC1)N(CCCCOc1ccc2[nH]c(=O)ccc2c1)CCN1CCC(O)CC1` [Example 41], the pIC50 in the experiment with platelets [1] is 4.96; in the experiment with platelets [2] (Homo sapiens, Platelet) it was 5.06. As to `O=C(c1ccccc1)N(CCCCOc1ccc2[nH]c(=O)ccc2c1)CCN1CCC(O)CC1` [Example 42], the pIC50 in the experiment with platelets [1] was 4.89; in the experiment with platelets [2] (Homo sapiens, Platelet), 4.70.

Consider `O=c1ccc2cc(OCCCCN(CCN3CCOCC3)CC3CCCCCCC3)ccc2[nH]1` [Example 45], for which the pIC50 in the experiment on platelets [1] is 4.60; with platelets [2] (Homo sapiens, Platelet), 4.66.

With `CN(C)C1CCN(CCN(CCCCOc2ccc3[nH]c(=O)ccc3c2)CC2CCCCCCC2)CC1` [Example 46], the negative logarithm of the IC50 (pIC50) with platelets [1] is 4.70; in the experiment on platelets [2] (Homo sapiens, Platelet), 4.70. As for `O=c1ccc2cc(OCCCCN(CCN3CCC4(CC3)OCCO4)CC3CCCCCCC3)ccc2[nH]1` [Example 47], the pIC50 in the experiment with platelets [1] is 4.54; in the experiment with platelets [2] (Homo sapiens, Platelet), 4.60. On to `O=c1ccc2cc(OCCCCN(CCN3CCC[C@H]3CO)CC3CCCCCCC3)ccc2[nH]1` [Example 49], for which the pIC50 was 4.66 with platelets [1] and 5.16 in the experiment with platelets [2] (Homo sapiens, Platelet). On to `O=C1CC[C@@H](CO)N1CCN(CCCCCOc1ccc2[nH]c(=O)ccc2c1)Cc1ccccc1` [Example 55], for which the pIC50 was 5.59 with platelets [1] and 5.43 in the experiment on platelets [2] (Homo sapiens, Platelet). Regarding `O=c1ccc2cc(OCCCCCN(CCN3CCCS3(=O)=O)Cc3ccccc3)ccc2[nH]1` [Example 56], the pIC50 in the experiment on platelets [1] was 5.11; in the experiment with platelets [2] (Homo sapiens, Platelet), 4.85. The like results for `O=c1ccc2cc(OCCCCCN(CCN3CCN(CCO)CC3)Cc3ccccc3)ccc2[nH]1` [Example 57] were, in that order, 4.77 and 4.74. Take `O=c1ccc2cc(OCCCCCN(CCN(CCO)CCO)Cc3ccccc3)ccc2[nH]1` [Example 58]: the pIC50 in the experiment with platelets [1] was 5.32; in the experiment on platelets [2] (Homo sapiens, Platelet), 5.42.

In the case of `O=c1ccc2cc(OCCCCN(CCNCCO)CC3CCCCCCC3)ccc2[nH]1` [Example 60], the negative-log IC50 (pIC50) in the experiment with platelets [1] was 5.28; in the experiment with platelets [2] (Homo sapiens, Platelet), 4.82.

Consider `CCN(CC)C(=O)CN(CCCCOc1ccc2[nH]c(=O)ccc2c1)CC1CCCCCCC1` [Example 65], for which the pIC50 is 4.85 with platelets [1] and 4.96 with platelets [2] (Homo sapiens, Platelet). Consider `O=c1ccc2cc(OCCCCCN(CCO)Cc3ccccc3)ccc2[nH]1` [Example 67], for which the pIC50 is 5.54 with platelets [1] and 5.35 in the experiment on platelets [2] (Homo sapiens, Platelet). The like results for `O=c1ccc2cc(OCCCCCN(CCn3ccnc3)Cc3ccccc3)ccc2[nH]1` [Example 69] were, in that order, 5.02 and 4.82. Take `CCN1C[C@H](O)C[C@H]1CN(CCCCOc1ccc2[nH]c(=O)ccc2c1)CC1CCCCCCC1` [Example 71]: the negative logarithm of the IC50 (pIC50) was 5.13 with platelets [1] and 4.74 in the experiment with platelets [2] (Homo sapiens, Platelet). The like results for `O=C([C@@H]1C[C@@H](O)CN1CCCCOc1ccc2[nH]c(=O)ccc2c1)N1CCCCC1` [Example 74] were, in that order, 4.70 and 4.77. For the molecule `CN(C1CCCCC1)S(=O)(=O)CCCCOc1ccc2[nH]c(=O)ccc2c1` [Example 77], the pIC50 was 5.31 in the experiment on platelets [1] and 5.68 in the experiment with platelets [2] (Homo sapiens, Platelet). As to `O=c1ccc2cc(OCCCS(=O)(=O)N(CCN3CCC(O)CC3)CC3CCCCCCC3)ccc2[nH]1` [Example 78], the pIC50 in the experiment with platelets [1] was 6.42; in the experiment on platelets [2] (Homo sapiens, Platelet), 5.85. Regarding `O=c1ccc2cc(OCCCCCS(=O)(=O)N(CCN3CCC(O)CC3)CC3CCCCCCC3)ccc2[nH]1` [Example 80], the pIC50 with platelets [1] was 4.82; with platelets [2] (Homo sapiens, Platelet), 4.89. For `O=C(CN(CC1CCCCCCC1)S(=O)(=O)CCCOc1ccc2[nH]c(=O)ccc2c1)N1CCC(O)CC1` [Example 81] the same measures were 4.96 and 5.21. In the case of `O=c1ccc2cc(OCCCS(=O)(=O)N(CCN3CCC(O)CC3)CC3CCCCC3)ccc2[nH]1` [Example 82], the pIC50 in the experiment on platelets [1] was 5.42; in the experiment on platelets [2] (Homo sapiens, Platelet), 5.35.

`O=c1ccc2cc(OCCCS(=O)(=O)N(CCN3CCC(O)CC3)CC3CCCCO3)ccc2[nH]1` (stereo not shown) [Example 84]: the pIC50 is 5.04 with platelets [1] and 5.02 in the experiment with platelets [2] (Homo sapiens, Platelet). In the case of `O=S(=O)(CCCOc1ccc2[nH]c(=S)ccc2c1)N(CCN1CCC(O)CC1)c1ccccc1` [Example 87], the pIC50 with platelets [2] (Homo sapiens, Platelet) was 5.33. Take `O=c1ccc2cc(OCCCCS(=O)(=O)N(CCN3CCC(O)CC3)C3CCCCCCC3)ccc2[nH]1` [Example 88]: the pIC50 in the experiment with platelets [1] was 5.85; in the experiment on platelets [2] (Homo sapiens, Platelet), 5.55.

Regarding `O=c1ccc2cc(OCCCCS(=O)(=O)N(CCN3CCC(O)CC3)Cc3cccs3)ccc2[nH]1` [Example 90], the pIC50 in the experiment with platelets [1] was 5.27; in the experiment with platelets [2] (Homo sapiens, Platelet), 5.28. For `Cc1ccc(CN(CCN2CCC(O)CC2)S(=O)(=O)CCCCOc2ccc3[nH]c(=O)ccc3c2)cc1` [Example 94] the same measures were 5.64 and 5.85.

Take `O=c1ccc2cc(OCCCCS(=O)(=O)N(CCN3CCC(O)CC3)Cc3ccc(Cl)c(Cl)c3)ccc2[nH]1` [Example 95]: the pIC50 in the experiment on platelets [1] is 5.15; in the experiment on platelets [2] (Homo sapiens, Platelet), 5.00. For the molecule `COc1ccc(CN(CCN2CCC(O)CC2)S(=O)(=O)CCCCOc2ccc3[nH]c(=O)ccc3c2)cc1OC` [Example 96], the negative-log IC50 (pIC50) with platelets [1] is 5.19; in the experiment on platelets [2] (Homo sapiens, Platelet), 5.06. Regarding `O=c1ccc2cc(OCCCS(=O)(=O)N(CCN3CCCCC3)CC3CCCCCCC3)ccc2[nH]1` [Example 97], the pIC50 in the experiment with platelets [1] was 4.74; in the experiment on platelets [2] (Homo sapiens, Platelet), 4.85.

Regarding `O=c1ccc2cc(OCCCS(=O)(=O)N(CCN3CCOCC3)CC3CCCCCCC3)ccc2[nH]1` [Example 98], the pIC50 was 4.92 in the experiment with platelets [1] and 5.04 with platelets [2] (Homo sapiens, Platelet). In the case of `O=c1ccc2cc(OCCCS(=O)(=O)N(CCN3CCN(CCO)CC3)CC3CCCCCCC3)ccc2[nH]1` [Example 99], the pIC50 in the experiment on platelets [1] is 5.46; in the experiment with platelets [2] (Homo sapiens, Platelet), 5.54. In the case of `CN(C)C1CCN(CCN(CC2CCCCCCC2)S(=O)(=O)CCCOc2ccc3[nH]c(=O)ccc3c2)CC1` [Example 100], the pIC50 is 5.19 with platelets [1] and 4.89 with platelets [2] (Homo sapiens, Platelet). Consider `O=c1ccc2cc(OCCCS(=O)(=O)N(CCN3CCC4(CC3)OCCO4)CC3CCCCCCC3)ccc2[nH]1` [Example 101], for which the negative-log IC50 (pIC50) was 5.49 in the experiment on platelets [1] and 5.54 in the experiment with platelets [2] (Homo sapiens, Platelet). For the molecule `O=c1ccc2cc(OCCCS(=O)(=O)N(CCN3C[C@H](O)[C@@H](O)C3)CC3CCCCCCC3)ccc2[nH]1` [Example 102], the pIC50 with platelets [1] was 4.82; with platelets [2] (Homo sapiens, Platelet), 5.02. With `O=c1ccc2cc(OCCCS(=O)(=O)N(CCN3CCC[C@H]3CO)CC3CCCCCCC3)ccc2[nH]1` [Example 103], the pIC50 is 5.49 in the experiment on platelets [1] and 5.59 in the experiment with platelets [2] (Homo sapiens, Platelet). As for `O=c1ccc2cc(OCCCCS(=O)(=O)N(CCN3CCC[C@H]3CO)CC3CCCCC3)ccc2[nH]1` [Example 104], the pIC50 is 5.64 with platelets [1] and 5.46 in the experiment with platelets [2] (Homo sapiens, Platelet). Regarding `CN(C(=O)NCCCOc1ccc2[nH]c(=O)ccc2c1)C1CCCCC1` [Example 133], in the experiment with platelets [2] (Homo sapiens, Platelet), the pIC50 is 5.54. With `CN(C(=S)CCCOc1ccc2[nH]c(=O)ccc2c1)C1CCCCC1` [Example 135], in the experiment on platelets [2], the negative logarithm of the IC50 (pIC50) was 4.66.
